{"source": "patent US20240165047A1", "about": "“Use Of Honokiol In Preparation Of Drug For Treating Meningioma” (Chengdu Jinrui Foundation Biotech Co., Ltd., priority 2021, published 2024)", "key": {"meningioma": {"tested_on": "meningioma", "test": "Phase I clinical trial of honokiol liposome for injection: cranial MR re-examination of meningioma patients, RANO standard", "type": "in vivo, human", "details": "summary statement of the clinical trials", "text": "(§1) Description of the Subject: • person; • on Jan. […] 27, 2018, the subject underwent the resection of a deep skull bottom lesion, endothelial meningoma, and local lesion being hemangioma-type meningoma, accompanied by bleeding, showing the non-typical meningioma, infiltrating bone tissue, comprehensive to malignant meningoma; immunohistochemistry: EMA (positive), PR (scattered in a little positive), SSTR (focal positive), CD34 (blood vessel positive), CD99 (+), S100 (-), Syn (-), CgA (-), CK (occasionally positive), Ki67 (about 8-20%); • in February 2019, the subject was treated for intracranial infection; • in June 2019, the subject received whole brain radiotherapy; • on Mar. 5, 2021, the subject re-examined the cranial MR and the tumor recurred; in order to further treat, at the outpatient of Beijing […] […]"}, "[1]": {"test": "Phase I clinical trial of clinical safety and tolerance of honokiol liposome for injection, safety analysis set (patients with advanced malignant solid tumors)", "type": "in vivo, human", "details": "summary statement of the clinical trials", "text": "as §1"}}}
{"molecule": "C=CCc1ccc(O)c(-c2ccc(O)c(CC=C)c2)c1", "note": "[honokiol, 3′,5-di-2-propenyl-1,1′-biphenyl-2,4′-diphenol]", "values": [{"measurement": "overall efficacy against meningioma in clinical trials", "setting": "meningioma", "result": "effectively treat the meningioma"}, {"measurement": "overall safety and tolerance in clinical trials", "setting": "[1]", "result": "good safety and tolerance"}]}
